# System: Pseudomonas aeruginosa PAM1001
# Experiment: checkerboard assay (broth microdilution): levofloxacin MIC in presence of efflux pump inhibitor
# Assay type: cell-based
# Description: For compounds labeled with the prefix ‘M’, potentiation effect is observed by the reduction of the minimum inhibitory concentration of levofloxacin in the presence of the experimental efflux pump inhibitor. The activity of efflux pump inhibitors (EPI) in combination with fluoroquinolones, such as levofloxacin, is assessed by the checkerboard assay (Antimicrobial Combinations. In Antibiotics in Laboratory Medicine, Ed. Victor Lorian, M.D., Fourth edition, 1996, pp 333-338) using broth microdilution method performed as recommended by the National Committee for Clinical Laboratory Standards (1997). Methods for Dilution of Antimicrobial Susceptibility Tests for Bacteria That Grow Aerobically—Fourth Edition; Approved Standard. NCCLS Document M7-A4, Vol 17 No.2). The test organism used is Pseudomonas aeruginosa PAM1001. […] The compounds tabulated below are representative of the described invention.
# In these assays, multiple dilutions of two drugs, namely the EPI and levofloxacin, are being tested, alone and in combination, at concentrations equal to, above and below their respective minimal inhibitory concentrations (MICs). In the case of EPI, most of these compounds are devoid of intrinsic antimicrobial activity and are tested up to the maximum concentration of 40 μg/mL. The MIC of levofloxacin against P. aeruginosa PAM1001 is 4 μg/mL.
# The EPI tested are readily soluble in water and stock solutions are prepared at a final concentration of 2 mg/mL. Stock solutions are further diluted, according to the needs of a particular assay, in Mueller Hinton Broth (MHB). Stock solution can be stored at −80° C. Quinolones are solubilized according to the instructions of the manufacturers, at a concentration of 1 mg/mL. They are then further diluted in MHB. Stock solution can be stored at −80° C.
# The checkerboard assay is performed in microtiter plates. Levofloxacin is diluted in the x axis, each column containing a single concentration of levofloxacin. The EPI is diluted in the y axis, each row containing an equal concentration of EPI. The result of these manipulations is that each well of the microtiter plate contains a unique combination of concentrations of the two agents. Each EPI are tested independently.
# The assay is performed in MHB with a final bacterial inoculum of 5×10^5 CFU/mL (from an early-log phase culture). Microtiter plates are incubated during 20 h at 35° C. and are read using a microtiter plate reader (Molecular Devices) at 650 nm as well as visual observation using a microtiterplate reading mirror.
Compound,"Levofloxacin MIC Against P. aerugiuosa PAM1001 in Presence of Efflux Pump Inhibitor (EPI), Minimum Inhibitory Concentration (EPI Conc. 0 μg/mL)","Levofloxacin MIC Against P. aerugiuosa PAM1001 in Presence of Efflux Pump Inhibitor (EPI), Minimum Inhibitory Concentration (EPI Conc. 0.625 μg/mL)","Levofloxacin MIC Against P. aerugiuosa PAM1001 in Presence of Efflux Pump Inhibitor (EPI), Minimum Inhibitory Concentration (EPI Conc. 1.25 μg/mL)","Levofloxacin MIC Against P. aerugiuosa PAM1001 in Presence of Efflux Pump Inhibitor (EPI), Minimum Inhibitory Concentration (EPI Conc. 2.5 μg/mL)","Levofloxacin MIC Against P. aerugiuosa PAM1001 in Presence of Efflux Pump Inhibitor (EPI), Minimum Inhibitory Concentration (EPI Conc. 5 μg/ mL)","Levofloxacin MIC Against P. aerugiuosa PAM1001 in Presence of Efflux Pump Inhibitor (EPI), Minimum Inhibitory Concentration (EPI Conc. 10 μg/mL)","Levofloxacin MIC Against P. aerugiuosa PAM1001 in Presence of Efflux Pump Inhibitor (EPI), Minimum Inhibitory Concentration (EPI Conc. 20 μg/mL)","Levofloxacin MIC Against P. aerugiuosa PAM1001 in Presence of Efflux Pump Inhibitor (EPI), Minimum Inhibitory Concentration (EPI Conc. 40 μg/mL)"
"Cc1cc2nc(C(O)[C@@H](CCc3ccccc3)NC(=O)[C@@H]3C[C@@H](NC(=O)CN)CN3)oc2cc1C (mixture of isomers) [Compound M64, (2S,4R)-4-(2-Aminoacetamido)-N-[(1R)-1-[(RS)-(5,6-dimethyl-2-benzoxazoly)hydroxymethyl]-3-pheylpropyl]-2-pyrrolidinecarboxamide]",4 µg/mL,4 µg/mL,4 µg/mL,4 µg/mL,4 µg/mL,4 µg/mL,4 µg/mL,0.015 µg/mL
"Cc1cc2nc(C(O)[C@@H](CCc3ccccc3)NC(=O)[C@@H]3C[C@@H](NC(=O)[C@@H](C)N)CN3)oc2cc1C (mixture of isomers) [Compound M65, (2S,4R)-4-[(2R)-2-Aminopropionamido]-N-[(1R)-1-[(RS)-(5,6-dimethyl-2-benzoxaaolyl)hydroxymethyl]-3-phenylpropyl]-2-pyrrolidinecarboxamide]",4 µg/mL,4 µg/mL,4 µg/mL,4 µg/mL,4 µg/mL,4 µg/mL,0.06 µg/mL,0.015 µg/mL
"Cc1cc2nc(C(O)[C@@H](CCc3ccccc3)NC(=O)[C@H]3C[C@H](NC(=O)[C@@H](C)N)CN3)oc2cc1C (mixture of isomers) [Compound M66, (2R,4S)-4-[(2R)-2-Aminopropionamido]-N-[(1R)-1-[(RS)-(5,6-dimethyl-2-benzoxaaolyl)hydroxymethyl]-3-phenylpropyl]-2-pyrrolidinecarboxamide]",4 µg/mL,4 µg/mL,4 µg/mL,4 µg/mL,4 µg/mL,0.125 µg/mL,0.015 µg/mL,0.015 µg/mL
CC(C)(C)c1ccc2oc(C(O)[C@@H](CCc3ccccc3)NC(=O)[C@H]3C[C@H](CN)CN3)nc2c1 (mixture of isomers) [Compound M68],4 µg/mL,4 µg/mL,4 µg/mL,4 µg/mL,4 µg/mL,4 µg/mL,0.5 µg/mL,0.015 µg/mL

# From patent publication US6399629B1, “Efflux pump inhibitors” (priority 1998, dated 2002)
